Common to all, as to type: cell-based
The test system of one assay is CEM/dCK-. In words: MMT or WST-1 assay at 72 hr. To be noted: for Resistance Factor: CEM/dCK- versus CCRF-CEM. On the technique in general: Formazan colour is commonly taken as a measure of viable cells.
The next assay relates to SF-268. In words: MTT assay at 72 hr. To be noted: Homo sapiens, SF-268, read-out: IC50 (MTT at 72 hr) SF-268, 24 h exposure, single experiments.
Another assay concerns MCF-7. In words: MTT assay at 72 hr. To be noted: Homo sapiens, MCF7, read-out: IC50 (MTT at 72 hr) MCF-7, 24 h exposure, single experiments.
A short description of assay [1]: 3H-Thymidine Incorporation Assay (24 hr drug, wash, another 48 hr; 72 hr assay). To be noted: for IC50: 24 hr exposure to drug, wash, another 48 hr.
A further assay relates to H-460. In words: MTT assay at 72 hr. To be noted: Homo sapiens, NCI-H460, read-out: IC50 (MTT at 72 hr) H-460, 24 h exposure, single experiments.
A further assay has as its system CCRF-CEM. In words: MMT or WST-1 assay at 72 hr. To be noted: Homo sapiens, read-out: IC50 (MMT or WST-1 at 72 hr) CCRF-CEM, 24 h exposure, single experiments.
In the next assay the test system is CEM cells. The experiment in a line: CellTiter 96 cell proliferation assay, 48 h exposure. To be noted: for effect of es transport inhibitor NBMPR on resistance of CEM cells: presence of NBMPR. The method, then:
The chemosensitivity of suspension cells lines (e.g., CEM or CEM-derivatives) is assessed using the CellTiter 96 ? proliferation assay. […] Chemosensitivity is expressed as 50% (ECso) of the dose response curve determined, e.g., using GraphPad Prism 2.01 (GraphPad Software, San Diego, Calif.). Adherent cell lines (e.g., DU145 or DU145^R) are seeded (˜10^5 cells) in triplicate dishes, 24 h before drug exposure. Growth inhibition is determined by trypsinization and counting cells electronically.

Setting [2] is: CCRF-CEM, read-out: IC50 (3H-TdR incorporation at 72 hr) CCRF-CEM 24 h, CCRF-CEM T-cell leukemia.
[3] abbreviates: CCRF-CEM, read-out: IC50 (3H-TdR incorporation at 72 hr) CEM/dCK- 24 h, CEM/dCK- (CCRF-CEM deoxycytidine kinase-deficient).
Setting [4] is: NCI-H460, read-out: IC50 (3H-TdR incorporation at 72 hr) H-460 24 h, H-460 human lung carcinoma.

The structures appear in SMILES notation. Where “and” joins values, the source holds several entries; their conditions need not be identical. Identical values can stand only once. Like-named read-outs stand apart in the source and are kept apart here.

What is called EC50 is the concentration at which the effect is half-maximal.

For `CCCCC(C)(C)C(=O)OC[C@H]1OC[C@@H](n2ccc(N)nc2=O)O1.Cl` [Compound 107, 2,2-DIMETHYLHEXANOIC ACID 4-(4-AMINO-2-OXO-2H-PYRI- MIDIN-1-YL)-1,3-DI- OXOLAN-2-YLMETHYL ESTER HYDROCHLORIDE], the “Resistance Factor” value in the assay on CEM/dCK- was 2,042.

On to `Nc1ccn([C@@H]2CO[C@H](COC(=O)C34CCC[C@@H]5C[C@@H]3C[C@H]5C4)O2)c(=O)n1` [Compound 232, HEXAHYDRO-2,5-METHANO-PENTA- LENE-3A-CARBOXYLIC ACID 4-(4-AMINO-2-OXO-2H-PYRIMI- DIN-1-YL)-[1,3]DI- OXOLAN-2-YL METHYL ESTER], for which the IC50 in the assay with SF-268 worked out at 160 nM; with MCF-7, 20 nM; in assay [1] (setting [2]), 3.7 nM; in assay [1] (setting [3]) it was 5800 nM; in assay [1] (setting [4]), 0.53 nM; in assay [1] (read-out: IC50 (3H-TdR incorporation at 72 hr) CCRF-CEM 24 h, CCRF-CEM T-cell leukemia), 1.9 nM. Besides, the IC50 was found to be 4500 nM in assay [1] (read-out: IC50 (3H-TdR incorporation at 72 hr) CEM/dCK- 24 h, CEM/dCK- (CCRF-CEM deoxycytidine kinase-deficient)); 0.38 nM in assay [1] (read-out: IC50 (3H-TdR incorporation at 72 hr) H-460 24 h, H-460 human lung carcinoma); 6.9 nM in the assay with H-460; 10 nM in the assay on CCRF-CEM; 2100 nM with CEM/dCK- (read-out: IC50 (MMT or WST-1 at 72 hr) CEM/dCK-, 24 h exposure, single experiments). Moreover, the “Resistance Factor” value with CEM/dCK- is 210.

Consider `Cc1ccc(C)c(OCCCC(C)(C)C(=O)OC[C@H]2OC[C@@H](n3ccc(N)nc3=O)O2)c1` [Compound 237], for which the IC50 was 3300 nM in the assay with SF-268; 1.6 nM in assay [1] (setting [2]); 18000 nM in assay [1] (setting [3]); no more than 0.1 nM in assay [1] (MCF7, read-out: IC50 (3H-TdR incorporation at 72 hr) MCF-7 24 h, MCF-7 human breast carcinoma); 2.6 nM in assay [1] (setting [4]); 88 nM in assay [1] (SF-268, read-out: IC50 (3H-TdR incorporation at 72 hr) SF-268 24 h, SF-268 human central nervous system tumor). For the same molecule, in assay [1] (ratio of IC50 CEM/dCK- to IC50 CCRF-CEM), the “Resistance Factor = Ratio of dCK- on Wild-type CCRF-CEM” value was 11,250.

With `CC(C)C[C@H](N)C(=O)Nc1ccn([C@@H]2CO[C@H](CO)O2)c(=O)n1` [Compound 257, 2-AMINO-4-METHYL-PENTANOIC ACID[1-(2-HYDROXY- METHYL-[1,3]DIOXO- LAN-4-yl)-2-OXO-1,2-DIHYDRO-PYRI- MIDIN-4-YL]-AMIDE], the “Resistance Factor” value in the assay on CEM/dCK- was greater than 19.

For the molecule `CC(C)C[C@H](NC(=O)[C@H](C)NC(=O)OC(C)(C)C)C(=O)Nc1ccn([C@@H]2CO[C@H](CO)O2)c(=O)n1` [Compound 263, (1-{1-[1-(2-HYDROXY- METHYL-[1,3]DIOXO- LAN-4-YL)-2-OXO-1,2-DI- HYDRO-PYRIMIDIN-4-YLCARBA- MOYL]-3-METHYL-BUTYL- CARBAMOYL}-ETHYL)-CARBAMIC ACID TERT-BUTYL ESTER], the “Resistance Factor” value in the assay on CEM/dCK- is >5 and >7.

Regarding `Nc1ccn([C@@H]2O[C@H](CO)[C@@H](O)[C@@H]2O)c(=O)n1` [Cytarabine, cytarabine], the “effect of es transport inhibitor NBMPR on resistance of CEM cells” value with CEM cells is “significantly increased resistance”.

Turning to `Nc1ccn([C@@H]2O[C@H](CO)[C@@H](O)C2(F)F)c(=O)n1` [Gemcitabine, gemcitabine], the EC50 with CEM cells (Homo sapiens, CCRF-CEM, 48 h, read-out: Chemosensitivity, 50% of the dose response curve (EC50), CEM + NBMPR (100 nM), 48 h exposure, mean ± SD) was found to be 70 ± 18 nM. In the assay with CEM cells, the “effect of es transport inhibitor NBMPR on resistance of CEM cells” value was “significantly increased resistance”.

The values above are taken from US20050256034A1, “Dioxolane analogs for improved inter-cellular delivery” (priority 2000, published 2005).
